# In US4593090A, “Novel nitrosourea compounds, method for preparing same, and pharmaceutical composition containing same” (Gogo Kimura, priority 1981, dated 1986):
# How the values were obtained:
# [1] = Acute toxicity (LD50, Behrens-Karber method); type: in vivo, ICR mice; conditions: mouse, in vivo, ip, mortality during 30 days
# Method: Test compounds, dissolved or suspended in 0.5% aqueous CMC, were each intraperitoneally administered to ICR mice in a dose of 0.1 ml per 10 g body weight. LD50 (mg/kg) value of each test compound was calculated from the mortality of mice during 30 days by the Behrens-Karber method.
# Leukemia L1210 [2] = assay: Activity against Leukemia L1210, oral, increase in life span of mice; type: in vivo, female mice (BDF1 family); conditions: for ED (maximum ILS) / ED30: Mus musculus, L1210, oral once a day for 5 successive days; for ED (maximum ILS): daily dosage giving maximum increase of life span, read-out: O.D. (optimum dosage); for ED30: daily dosage increasing average survival days by 30%, read-out: ILS30; for Survivors after 60 days / Max. ILS % / Therapeutic ratio TR: oral; for Survivors after 60 days: 6-membered group; for Max. ILS %: 60-day observation, versus control; for Therapeutic ratio TR: O.D./ILS30
# Method: Tests were conducted in accordance with the method for measuring antitumor activity of National Cancer Center Tokyo (A, Hoshi et al, Farumashia 9 464 (1973)). Test compounds were each intraperitoneally (referred to as ip) or orally (referred to as op) administered once a day for 5 successive days to a 6-membered group of femal mice (BDF1 family, each weighing 20 to 23 g) 24 hours after 1×10^5 cells of Leukemia L1210 have been implantated into the abdominal cavities of the mice, and the effect was evaluated by comparing the survival days of treated groups with those of an untreated group of mice (control group) in 60-day observation. An increase percentage of life span (ILS%) was calculated from said average survival days compared with those of the control group. Further, therapeutic ratio (O.D./ILD30, referred to as T.R.) of each tested compound was calculated from the daily dosage of the compound necessary to increase said average survival days by 30% as compared with the control group (this dosage is referred to as ILS 30) and the daily dosage giving a maximum increase of life span to mice implantated with L1210 cells, namely an optimum dosage (referred to as O.D.). The results of five successive days intraperitoneal administrations of test compounds were shown in Tables I to III, and those of five successive oral administrations in Table IV.
# Leukemia L1210 [3] = assay: Activity against Leukemia L1210, intraperitoneal, increase in life span of mice; type: in vivo, female mice (BDF1 family); conditions: for ED (maximum ILS) / ED30: Mus musculus, L1210, ip, ip once a day for 5 successive days; for ED (maximum ILS): daily dosage giving maximum increase of life span, read-out: O.D. (optimum dosage); for ED30: daily dosage increasing average survival days by 30%, read-out: ILS30; for Survivors after 60 days / Max. ILS % / Therapeutic ratio TR: ip; for Survivors after 60 days: 6-membered group; for Max. ILS %: 60-day observation, versus control; for Therapeutic ratio TR: O.D./ILS30
# Summary of the method: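 Female BDF1 mice (20 to 23 g, 6 per group) implanted ip with 1×10^5 L1210 cells; test compound given ip or orally once daily for 5 days starting 24 h later. ILS% from mean survival days vs untreated controls over 60 days; T.R. = O.D./ILS30.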
SMILES,LD50 at 720 h [1] [mg/kg],ED (maximum ILS) (Leukemia L1210 [2]) [mg/kg],ED30 (Leukemia L1210 [2]) [mg/kg],Survivors after 60 days (Leukemia L1210 [2]),Max. ILS % (Leukemia L1210 [2]) [%],Therapeutic ratio TR (Leukemia L1210 [2]),ED (maximum ILS) (Leukemia L1210 [3]) [mg/kg],ED30 (Leukemia L1210 [3]) [mg/kg],Survivors after 60 days (Leukemia L1210 [3]),Max. ILS % (Leukemia L1210 [3]) [%],Therapeutic ratio TR (Leukemia L1210 [3])
"CC(C)CN(C[C@@H]1O[C@@H](OC2CCCCC2)[C@H](O)[C@@H]1O)C(=O)N(CCCl)N=O [Compound 171, 3-isobutyl-3-(cyclohexyl α-L-lyxofuranose-5-yl)-1-(2-chloroethyl)-1-nitrosourea]",450,190,11.7,4/6,> 450,16.2,150,3.3,4/6,> 440,45.5
"CCOCCO[C@H]1O[C@H](CO)[C@@H](O)[C@H](O)[C@H]1N(CCC(C)(C)C)C(=O)N(CCCl)N=O [Compound 192, 3-(3,3-dimethyl-n-butyl)-3-(2-ethoxyethyl α-D-glucopyranose-2-yl)-1-(2-chloroethyl)-1-nitrosourea]",515,200,9.85,5/6,> 625,20.3,160,2.74,6/6,> 700,58.4
"COC(C)CN(C[C@H]1O[C@H](OC(C)C)[C@H](O)[C@@H](O)[C@@H]1O)C(=O)N(CCCl)N=O (stereo partly drawn) [Compound 2, 3-(2-methoxy-n-propyl)-3-(isopropyl α-D-glucopyranose-6-yl)-1-(2-chloroethyl)-1-nitrosourea]",420,180,7.35,6/6,> 700,24.5,140,2.3,6/6,> 700,60.9
"CCOCCN(C(=O)N(CCCl)N=O)[C@H]1[C@@H](OCC(C)C)O[C@H](CO)[C@H](O)[C@@H]1O [Compound 123, 3-(2-ethoxyethyl)-3-(isobutyl α-D-galactopyranose-2-yl)-1-(2-chloroethyl)-1-nitrosourea]",730,240,13.2,3/6,> 360,18.2,200,4.98,3/6,> 365,40.2
"CCCCOC1OC(CO)C(O)C(N(CC(C)OC)C(=O)N(CCCl)N=O)C1O [Compound 83, 3-(2-methoxy-n-propyl)-3-(n-butyl α-D-glucopyranose-3-yl)-1-(2-chloroethyl)-1-nitrosourea]",665,240,16.8,3/6,> 360,14.3,200,5.03,4/6,> 425,39.8
"O=NN(CCCl)C(=O)N(CC1CCCO1)[C@H]1[C@H](OC2CCCCC2)OC[C@H](O)[C@@H]1O (stereo partly drawn) [Compound 156, 3-tetrahydrofurfuryl-3-(cyclohexyl α-L-arabinopyranose-2-yl)-1-(2-chloroethyl)-1-nitrosourea]",480,180,9.78,4/6,> 460,18.4,150,2.45,6/6,> 700,61.2
"CC(C)CO[C@H]1O[C@H](CN(CC(C)(C)C)C(=O)N(CCCl)N=O)[C@@H](O)[C@H](O)[C@H]1O [Compound 183, 3-neopentyl-3-(isobutyl α-D-glucopyranose-6-yl)-1-(2-chloroethyl)-1-nitrosourea]",520,200,13.2,4/6,> 460,15.2,170,3.01,6/6,> 700,56.4
"COC(C)CN(C(=O)N(CCCl)N=O)[C@H]1CO[C@@H](OCC(C)C)[C@H](O)[C@H]1O (stereo partly drawn) [Compound 153, 3-(2-methoxy-n-propyl)-3-(isobutyl α-L-arabinopyranose-4-yl)-1-(2-chloroethyl)-1-nitrosourea]",480,180,10.8,4/6,> 425,16.7,150,2.57,5/6,> 625,58.4
"COCCCO[C@H]1O[C@H](CN(CC(C)(C)C)C(=O)N(CCCl)N=O)[C@@H](O)[C@H](O)[C@H]1O [Compound 186, 3-neopentyl-3-(3-methoxy-n-propyl α-D-glucopyranose-6-yl)-1-(2-chloroethyl)-1-nitrosourea]",520,200,8.55,5/6,> 620,23.4,160,2.49,6/6,> 700,64.3
"CC(C)CN(C[C@H]1O[C@@H](OC2CCCCC2)[C@@H](O)[C@@H]1O)C(=O)N(CCCl)N=O [Compound 161, 3-isobutyl-3-(cyclohexyl β-D-arabinofuranose-5-yl)-1-(2-chloroethyl)-1-nitrosourea]",460,180,12.7,3/6,> 350,14.2,150,3.18,4/6,> 440,47.2
"CCC(COC)O[C@H]1O[C@H](CN(CC(C)(C)C)C(=O)N(CCCl)N=O)[C@@H](O)[C@H](O)[C@H]1O (stereo partly drawn) [Compound 185, 3-neopentyl-3-(1-methoxy-2-n-butyl α-D-glucopyranose-6-yl)-1-(2-chloroethyl)-1-nitrosourea]",550,200,8.16,5/6,> 625,24.5,170,2.69,6/6,> 700,63.1
